Here are results for 39 compounds from patent US9326986B2, “Quinazolinone, quinolone and related analogs as sirtuin modulators” (GLAXOSMITHKLINE LLC, priority 2008, dated 2016).

In this experiment the target is T1, SIRT1 (Homo sapiens, UniProt Q96EB6).
T1 sequence (Q96EB6 1-747): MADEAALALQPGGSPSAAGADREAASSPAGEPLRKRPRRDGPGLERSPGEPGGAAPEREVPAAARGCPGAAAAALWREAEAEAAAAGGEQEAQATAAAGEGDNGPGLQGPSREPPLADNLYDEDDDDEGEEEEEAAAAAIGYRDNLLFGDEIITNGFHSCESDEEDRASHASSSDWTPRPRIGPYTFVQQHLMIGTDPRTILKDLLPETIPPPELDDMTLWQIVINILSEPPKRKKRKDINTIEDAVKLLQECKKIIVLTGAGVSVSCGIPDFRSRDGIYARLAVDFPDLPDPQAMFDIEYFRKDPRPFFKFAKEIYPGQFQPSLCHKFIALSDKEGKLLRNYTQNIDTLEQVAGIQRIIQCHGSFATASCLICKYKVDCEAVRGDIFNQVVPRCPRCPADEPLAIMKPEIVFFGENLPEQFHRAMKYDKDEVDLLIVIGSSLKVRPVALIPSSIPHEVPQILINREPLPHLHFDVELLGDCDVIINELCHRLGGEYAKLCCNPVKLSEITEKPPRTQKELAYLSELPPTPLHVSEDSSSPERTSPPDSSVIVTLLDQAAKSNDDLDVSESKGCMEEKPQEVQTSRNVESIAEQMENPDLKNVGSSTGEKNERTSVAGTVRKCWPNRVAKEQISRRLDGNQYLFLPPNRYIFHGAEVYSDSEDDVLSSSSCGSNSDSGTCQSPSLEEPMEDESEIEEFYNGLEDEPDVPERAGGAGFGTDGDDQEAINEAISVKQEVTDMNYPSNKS
The experiment can be described thus: Mass spectrometry based assay to identify modulators of SIRT1 activity (deacetylation of p53-based acetylated peptide). It is filed as biochemical. To be noted: 10 nM SIRT1, 0.5 μM peptide substrate, 120 μM βNAD+, 25 minutes at 25° C.; for EC1.5 μM: SIRT1 activation.

As for `Cn1c(-c2ccc(N3CCOCC3)cc2)nc2c(C(=O)Nc3ccccn3)cccc2c1=O` [Compound 217], the “% Fold Act. (percent maximum fold activation)” value was “A (Fold activation>200%)” and the “EC1.5 μM” value is on record as “B (EC1.5 1-25 μM)”.
The corresponding values for `Cn1cnc(-c2nc3c(NC(=O)c4cnccn4)cccc3c(=O)n2C)c1` [Compound 288] are “B (Fold Activation<200%)” and “C (EC1.5>25 μM)”.
The corresponding values for `Cn1c(-c2ccccc2N2CCOCC2)nc2c(C(=O)Nc3ccccn3)cccc2c1=O` [Compound 216] are “B (Fold Activation<200%)” and “C (EC1.5>25 μM)”.
For `COc1cc(OC)nc(C(=O)Nc2cccc3c(=O)cc(-c4cccc(C(F)(F)F)c4)[nH]c23)n1` [Compound 423], in that order: “A (Fold activation>200%)” and “A (EC1.5<1.0 μM)”.
Regarding `Cn1c(-c2ncccn2)nc2c(NC(=O)c3cnccn3)cccc2c1=O` [Compound 282], the “% Fold Act. (percent maximum fold activation)” value is on record as “B (Fold Activation<200%)” and the “EC1.5 μM” value was “C (EC1.5>25 μM)”.
As for `O=C(Nc1cnccn1)c1cccc2c(=O)cc(-c3cccc(C(F)F)c3)[nH]c12` [Compound 432], the “% Fold Act. (percent maximum fold activation)” value is “A (Fold activation>200%)” and the “EC1.5 μM” value is “A (EC1.5<1.0 μM)”.
For the compound `O=C(Nc1ccccn1)c1cccc2c(=O)[nH]c(-c3cccc(OC(F)F)c3)nc12` [Compound 325], the “% Fold Act. (percent maximum fold activation)” value is “B (Fold Activation<200%)” and the “EC1.5 μM” value was “C (EC1.5>25 μM)”.
With `O=C(Nc1ccncn1)c1cccc2c(=O)cc(-c3cccc(C(F)(F)F)c3)[nH]c12` [Compound 415], the “% Fold Act. (percent maximum fold activation)” value is “A (Fold activation>200%)” and the “EC1.5 μM” value is given as “A (EC1.5<1.0 μM)”.
For `Cc1ncsc1-c1nc2c(C(=O)Nc3ccccn3)cccc2c(=O)n1C` [Compound 226], in that order: “B (Fold Activation<200%)” and “B (EC1.5 1-25 μM)”.
Take `Cn1c(-c2cccc(S(C)(=O)=O)c2)nc2c(C(=O)Nc3ccccn3)cccc2c1=O` [Compound 222]: the “% Fold Act. (percent maximum fold activation)” value is recorded as “A (Fold activation>200%)” and the “EC1.5 μM” value is recorded as “B (EC1.5 1-25 μM)”.
For `Cn1ccnc1-c1nc2c(NC(=O)c3cnccn3)cccc2c(=O)n1C` [Compound 289], in that order: “B (Fold Activation<200%)” and “C (EC1.5>25 μM)”.
The corresponding values for `O=C(Nc1cccc2c(=O)cc(-c3cccc(C(F)(F)F)c3)[nH]c12)c1cccc(F)n1` [Compound 424] are “A (Fold activation>200%)” and “A (EC1.5<1.0 μM)”.
The corresponding values for `Cn1c(-c2ccncc2)nc2c(NC(=O)c3cnccn3)cccc2c1=O` [Compound 279] are “B (Fold Activation<200%)” and “C (EC1.5>25 μM)”.
`Cn1ccc(-c2nc3c(C(=O)Nc4ccccn4)cccc3c(=O)n2C)n1` [Compound 228]: the “% Fold Act. (percent maximum fold activation)” value was “B (Fold Activation<200%)” and the “EC1.5 μM” value was “B (EC1.5 1-25 μM)”.
For `Cn1cnc(NC(=O)c2cccc3c(=O)n(C)c(-c4cccc(C(F)(F)F)c4)nc23)n1` [Compound 305], in that order: “A (Fold activation>200%)” and “B (EC1.5 1-25 μM)”.
Regarding `O=C(Nc1nccs1)c1cccc2c(=O)cc(-c3ccccc3C(F)(F)F)[nH]c12` [Compound 427], the “% Fold Act. (percent maximum fold activation)” value is “A (Fold activation>200%)” and the “EC1.5 μM” value is reported as “A (EC1.5<1.0 μM)”.
For `Cn1cncc1-c1nc2c(C(=O)Nc3ccccn3)cccc2c(=O)n1C` [Compound 262], in that order: “B (Fold Activation<200%)” and “C (EC1.5>25 μM)”.
`CC(C)n1c(-c2cccc(C(F)(F)F)c2)nc2c(NC(=O)c3cnccn3)cccc2c1=O` [Compound 267]: the “% Fold Act. (percent maximum fold activation)” value was “A (Fold activation>200%)” and the “EC1.5 μM” value is “A (EC1.5<1.0 μM)”.
For `O=C(Nc1ccccn1)c1cccc2c(=O)[nH]c(-c3cccc(C(F)(F)F)c3)nc12` [Compound 218], in that order: “A (Fold activation>200%)” and “A (EC1.5<1.0 μM)”.
For `Cn1c(-c2cncnc2)nc2c(C(=O)Nc3ccccn3)cccc2c1=O` [Compound 260], in that order: “B (Fold Activation<200%)” and “C (EC1.5>25 μM)”.
For `O=C(Nc1cccc2c(=O)cc(-c3cccc(Cl)c3)[nH]c12)c1cnccn1` [Compound 447], in that order: “A (Fold activation>200%)” and “A (EC1.5<1.0 μM)”.
Take `Cn1c(-c2cccc(C(F)(F)F)c2)nc2c(C(=O)Nc3cccnc3)cccc2c1=O` [Compound 265]: the “% Fold Act. (percent maximum fold activation)” value is listed as “A (Fold activation>200%)” and the “EC1.5 μM” value is listed as “B (EC1.5 1-25 μM)”.
The corresponding values for `O=C(Nc1cccc2c(=O)cc(-c3cccc(C(F)(F)F)c3)[nH]c12)c1ccncn1` [Compound 418] are “A (Fold activation>200%)” and “A (EC1.5<1.0 μM)”.
`O=C(Nc1cnccn1)c1cccc2c(=O)cc(-c3cccc(OC(F)(F)F)c3)[nH]c12` [Compound 442]: the “% Fold Act. (percent maximum fold activation)” value was “A (Fold activation>200%)” and the “EC1.5 μM” value is on record as “A (EC1.5<1.0 μM)”.
Turning to `Cn1c(-c2cccc(C(F)(F)F)c2)nc2c(C(=O)Nc3ccncc3)cccc2c1=O` [Compound 266], the “% Fold Act. (percent maximum fold activation)” value is given as “A (Fold activation>200%)” and the “EC1.5 μM” value is recorded as “B (EC1.5 1-25 μM)”.
For `Cn1c(-c2cccc(C(F)(F)F)c2)nc2c(NC(=O)c3cocn3)cccc2c1=O` [Compound 250], in that order: “B (Fold Activation<200%)” and “C (EC1.5>25 μM)”.
For `O=C(Nc1cccc2c(=O)cc(-c3cccc(Cl)c3)[nH]c12)c1cscn1` [Compound 446], the “% Fold Act. (percent maximum fold activation)” value is listed as “A (Fold activation>200%)” and the “EC1.5 μM” value is listed as “B (EC1.5 1-25 μM)”.
In the case of `Cn1c(-c2cccc(C#N)c2)nc2c(C(=O)Nc3ccccn3)cccc2c1=O` [Compound 253], the “% Fold Act. (percent maximum fold activation)” value is “B (Fold Activation<200%)” and the “EC1.5 μM” value is listed as “C (EC1.5>25 μM)”.
As to `Cc1cc(NC(=O)c2cccc3c(=O)cc(-c4cccc(C(F)(F)F)c4)[nH]c23)n(C)n1` [Compound 407], the “% Fold Act. (percent maximum fold activation)” value was “A (Fold activation>200%)” and the “EC1.5 μM” value was “A (EC1.5<1.0 μM)”.
As for `O=C(Nc1cccnc1)c1cccc2c(=O)cc(-c3cccc(OC(F)F)c3)[nH]c12` [Compound 443], the “% Fold Act. (percent maximum fold activation)” value is given as “A (Fold activation>200%)” and the “EC1.5 μM” value was “A (EC1.5<1.0 μM)”.
For `Cn1c(-c2cccc(C(F)(F)F)c2)nc2c(C(=O)Nc3cccc(CN4CCNCC4)n3)cccc2c1=O` [Compound 348], in that order: “A (Fold activation>200%)” and “A (EC1.5<1.0 μM)”.
The corresponding values for `O=C(Nc1cccc2c(=O)cc(-c3cccc(C(F)(F)F)c3)[nH]c12)c1cncnc1` [Compound 421] are “A (Fold activation>200%)” and “B (EC1.5 1-25 μM)”.
For `Cn1c(-c2cccc(C(F)(F)F)c2)nc2c(NC(=O)c3cccc(CN4CCCC4)c3)cccc2c1=O` [Compound 364], in that order: “A (Fold activation>200%)” and “B (EC1.5 1-25 μM)”.
Regarding `Cn1c(-c2cccc(OC(F)(F)F)c2)nc2c(C(=O)Nc3nccs3)cccc2c1=O` [Compound 200], the “% Fold Act. (percent maximum fold activation)” value is listed as “B (Fold Activation<200%)” and the “EC1.5 μM” value is reported as “B (EC1.5 1-25 μM)”.
As to `O=C(Nc1cccnc1)c1cccc2c(=O)cc(-c3ccccc3OC(F)F)[nH]c12` [Compound 440], the “% Fold Act. (percent maximum fold activation)” value is on record as “A (Fold activation>200%)” and the “EC1.5 μM” value was “B (EC1.5 1-25 μM)”.
The corresponding values for `O=C(Nc1ccccn1)c1cccc2c(=O)[nH]c(-c3ccccc3OC(F)F)nc12` [Compound 328] are “A (Fold activation>200%)” and “B (EC1.5 1-25 μM)”.
For `Cn1c(-c2cccc(C(F)(F)F)c2)nc2c(NC(=O)c3cccc(N4CCCC4)c3)cccc2c1=O` [Compound 337], in that order: “B (Fold Activation<200%)” and “C (EC1.5>25 μM)”.
The corresponding values for `Cn1c(-c2cccc(C(F)(F)F)c2)nc2c(C(=O)Nc3ccc(CN4CCOCC4)nc3)cccc2c1=O` [Compound 301] are “A (Fold activation>200%)” and “B (EC1.5 1-25 μM)”.
In the case of `Cn1c(-c2ccc(C(F)(F)F)cc2)nc2c(C(=O)Nc3ccccn3)cccc2c1=O` [Compound 208], the “% Fold Act. (percent maximum fold activation)” value was “B (Fold Activation<200%)” and the “EC1.5 μM” value was “C (EC1.5>25 μM)”.
